Measured values: ChEMBL document CHEMBL5576112, “Synthesis, in silico, in vitro evaluation of furanyl- and thiophenyl-3-phenyl-1H-indole-2-carbohydrazide derivatives as tubulin inhibitors and anticancer agents” (RSC Med Chem, 2024)
pIC50: −log10 of the molar value. The source made the active and inactive calls. No cut-off for these calls is given here.

Key:
[1] = tested on: NCI-H522; experiment: Growth inhibition of human NCI-H522 cells measured after 48 hrs by sulforhodamine B assay; type: functional; conditions: for CC50: read-out: LC50 (the source's name)
[2] = tested on: COLO 205; experiment: Growth inhibition of human COLO 205 cells measured after 48 hrs by sulforhodamine B assay; type: functional; conditions: for CC50: read-out: LC50 (the source's name)
[3] = tested on: MDA-MB-435; experiment: Growth inhibition of human MDA-MB-435 cells measured after 48 hrs by sulforhodamine B assay; type: functional; conditions: for CC50: read-out: LC50 (the source's name)
[4] = tested on: SK-MEL-5; experiment: Growth inhibition of human SK-MEL-5 cells measured after 48 hrs by sulforhodamine B assay; type: functional; conditions: for CC50: read-out: LC50 (the source's name)
[5] = tested on: NCI-H522; experiment: Growth inhibition of human NCI-H522 cells at 10 uM measured after 48 hrs by sulforhodamine B assay; type: functional, cell-based
[6] = tested on: COLO 205; experiment: Growth inhibition of human COLO 205 cells at 10 uM measured after 48 hrs by sulforhodamine B assay; type: functional, cell-based
[7] = tested on: MDA-MB-435; experiment: Growth inhibition of human MDA-MB-435 cells at 10 uM measured after 48 hrs by sulforhodamine B assay; type: functional, cell-based
[8] = tested on: SK-MEL-5; experiment: Growth inhibition of human SK-MEL-5 cells at 10 uM measured after 48 hrs by sulforhodamine B assay; type: functional, cell-based
[9] = species: Sus scrofa; experiment: Inhibition of porcine brain tubulin polymerization assessed as microtubule destabilization at 10 uM measured at 60 secs interval for 60 mins in presence of GTP by fluorescence assay
[10] = tested on: MDA-MB-231; experiment: Cell cycle arrest in human MDA-MB-231 cells assessed as accumulation of cells at G0/G1 phase at 10 uM measured after 24 hrs by Muse cell analyzer based assay (reference value: 59.7%); type: functional
[11] = tested on: MDA-MB-231; experiment: Cell cycle arrest in human MDA-MB-231 cells assessed as accumulation of cells at S phase at 10 uM measured after 24 hrs by Muse cell analyzer based assay (reference value: 12.9%); type: functional
[12] = tested on: MDA-MB-231; experiment: Cell cycle arrest in human MDA-MB-231 cells assessed as accumulation of cells at G2/M phase at 10 uM measured after 24 hrs by Muse cell analyzer based assay (reference value: 27.3%); type: functional
[13] = tested on: MDA-MB-231; experiment: Induction of morphological changes in human MDA-MB-231 cells assessed as loss of cell polarity at 10 uM measured after 24 hrs; type: functional, cell-based
[14] = tested on: MDA-MB-231; experiment: Induction of apoptosis in human MDA-MB-231 cells assessed as viable cells at 10 uM measured after 24 hrs by Annexin V/7-AAD double staining based muse cell analyzer method (reference value: 96.21%); type: functional; conditions: read-out: Activity
[15] = tested on: MDA-MB-231; experiment: Induction of apoptosis in human MDA-MB-231 cells assessed as early apoptotic cells at 10 uM measured after 24 hrs by Annexin V/7-AAD double staining based muse cell analyzer method (reference value: 1.64%); type: functional
[16] = tested on: MDA-MB-231; experiment: Induction of apoptosis in human MDA-MB-231 cells assessed as late apoptotic cells at 10 uM measured after 24 hrs by Annexin V/7-AAD double staining based muse cell analyzer method (reference value: 1.44%); type: functional
[17] = tested on: MDA-MB-231; experiment: Induction of apoptosis in human MDA-MB-231 cells assessed as necrotic cells at 10 uM measured after 24 hrs by Annexin V/7-AAD double staining based muse cell analyzer method (reference value: 0.72%); type: functional
[18] = Cytotoxicity against human HaCaT cells assessed as reduction in cell viability measured after 48 hrs by MTT assay; type: toxicity, cell-based
[19] = tested on: MDA-MB-231; experiment: Cytotoxicity against human MDA-MB-231 cells assessed as reduction in cell viability measured after 48 hrs by MTT assay; type: functional, cell-based; conditions: MDA-MB-231, 48 h
[20] = species: Sus scrofa; experiment: Inhibition of porcine brain tubulin polymerization assessed as microtubule destabilization by measuring relative fluorescence unit at 10 uM measured at 60 secs interval for 60 mins in presence of GTP by fluorescence assay
[21] = tested on: UACC-62; experiment: Growth inhibition of human UACC-62 cells measured after 48 hrs by sulforhodamine B assay; type: functional
[22] = tested on: OVCAR-8; experiment: Growth inhibition of human OVCAR-8 cells measured after 48 hrs by sulforhodamine B assay; type: functional
[23] = tested on: MCF7; experiment: Growth inhibition of human MCF7 cells measured after 48 hrs by sulforhodamine B assay; type: functional
[24] = tested on: K562; experiment: Growth inhibition of human K562 cells measured after 48 hrs by sulforhodamine B assay; type: functional
[25] = tested on: UACC-62; experiment: Growth inhibition of human UACC-62 cells at 10 uM measured after 48 hrs by sulforhodamine B assay; type: functional, cell-based
[26] = tested on: OVCAR-8; experiment: Growth inhibition of human OVCAR-8 cells at 10 uM measured after 48 hrs by sulforhodamine B assay; type: functional, cell-based
[27] = tested on: MCF7; experiment: Growth inhibition of human MCF7 cells at 10 uM measured after 48 hrs by sulforhodamine B assay; type: functional, cell-based
[28] = tested on: K562; experiment: Growth inhibition of human K562 cells at 10 uM measured after 48 hrs by sulforhodamine B assay; type: functional, cell-based
[29] = read-out: LC50 (the source's name)

Structure (SMILES)	GI50 [1] [nM]	GI50 [2] [nM]	CC50 [2] [nM]	GI50 [3] [nM]	GI50 [4] [nM]	growth inhibition (GI) [5]	growth inhibition (GI) [6]	growth inhibition (GI) [7]	growth inhibition (GI) [8]	inhibition [9]	CC50 [1] [µM]	CC50 [3] [nM]	CC50 [4] [µM]	further results
O=C(N/N=C/c1ccc(B(O)O)s1)c1[nH]c2ccc(Br)cc2c1-c1ccccc1	> 100	> 100	4980	> 100	> 100	Active	Active	Active	Active					
COc1csc(/C=N/NC(=O)c2[nH]c3ccc(Br)cc3c2-c2ccccc2)c1	< 10	19.1	70.8	19.1	18.6	Active	Active	Active	Active	inactive	> 100	259	0.0749	Activity [10]: 15.6%; Activity [11]: 10%; Activity [12]: 74.5%; Activity [13]: Active; viability at 10 µM [14]: 66.7%; Activity [15]: 6.44%; Activity [16]: 20.25%; Activity [17]: 6.61%; IC50 at 48 h [18]: 30 nM; pIC50 [19]: 6.80
COc1ccsc1/C=N/NC(=O)c1[nH]c2ccc(Br)cc2c1-c1ccccc1	213	435	5920	240	321	Active	Active	Active	Active		8.56	> 100000	> 100	RFU [20]: 20 a.u.; Activity [10]: 19.6%; Activity [11]: 10.2%; Activity [12]: 70%; Activity [13]: Active; viability at 10 µM [14]: 85.8%; Activity [15]: 3.55%; Activity [16]: 5.7%; Activity [17]: 4.98%; IC50 at 48 h [18]: 540 nM; pIC50 [19]: 5.38
N#Cc1ccc(/C=N/NC(=O)c2[nH]c3ccc(Br)cc3c2-c2ccccc2)s1	23	195	> 100000	36	124	Active	Active	Active	Active	inactive	> 100	> 100000	4.61	
COc1ccc(/C=N/NC(=O)c2[nH]c3ccc(Br)cc3c2-c2ccccc2)o1	18.4	187	659	77.5	139	Active	Active	Active	Active		> 100	747	> 100	GI50 [21]: 53.5 nM; CC50 [21, 29]: > 100 µM; GI50 [22]: 84.5 nM; CC50 [22, 29]: > 100 µM; GI50 [23]: 34.9 nM; LC50 [23]: > 100 µM; GI50 [24]: 47 nM; CC50 [24, 29]: > 100 µM; growth inhibition (GI) [25]: Active; growth inhibition (GI) [26]: Active; growth inhibition (GI) [27]: Active; growth inhibition (GI) [28]: Active
O=C(N/N=C/c1ccc([N+](=O)[O-])s1)c1[nH]c2ccc(Br)cc2c1-c1ccccc1	47.3	203	795	181	214	Active	Active	Active	Active	inactive	> 100	861	1.87	
O=C(N/N=C/c1cccs1)c1[nH]c2ccc(Br)cc2c1-c1ccccc1			> 10000			Active	Active	Active	Active		> 10	> 10000	> 10	growth inhibition (GI) [1]: Active; growth inhibition (GI) [2]: Active; growth inhibition (GI) [3]: Active; growth inhibition (GI) [4]: Active
